# Experimental data reported in the supplement of paper PMC10307832.
# Legend:
# Test in all cases: relative viability (nuclei count vs DMSO), 5 days (fraction); higher = more cells survive
# [1] = compound: C1=CC=C(C(=C1)C2=CC=C(C=C2)C3=CSC4=C3C(=C(C(=O)N4)C#N)O)O + Cc1cc(Nc2cc(N3CCN(C)CC3)nc(Sc3ccc(NC(=O)C4CC4)cc3)n2)n[nH]1 [Tozasertib] (partner 0.1 µM)
# In short: (§1)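 Lung cancer cell lines were seeded in 1536-well plates and dosed by pin tool the next day, with either a single drug or a fixed anchor-drug dose combined with five library-drug doses (not always all listed) spaced in √10 steps. Five days later, one step fixed the cells and stained their nuclei (final 0.05% Triton X-100, 1% formaldehyde, 1 ug/ml Hoechst), and nuclei were counted on 4× images. Relative viability is the nuclei count in treated wells divided by the count in vehicle wells, and each value is the median of duplicate plates.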
# TGX 221 + Luminespib = compound: CC1=CN2C(=O)C=C(N=C2C(=C1)C(C)NC3=CC=CC=C3)N4CCOCC4 [TGX 221] + CCNC(=O)c1noc(-c2cc(C(C)C)c(O)cc2O)c1-c1ccc(CN2CCOCC2)cc1 [Luminespib] (partner 0.01 µM)
# In short: as §1
# TGX 221 + Tozasertib = compound: CC1=CN2C(=O)C=C(N=C2C(=C1)C(C)NC3=CC=CC=C3)N4CCOCC4 [TGX 221] + Cc1cc(Nc2cc(N3CCN(C)CC3)nc(Sc3ccc(NC(=O)C4CC4)cc3)n2)n[nH]1 [Tozasertib] (partner 0.1 µM)
# In short: as §1
# Ricolinostat + AZD7762 = compound: O=C(CCCCCCNC(=O)c1cnc(N(c2ccccc2)c2ccccc2)nc1)NO [Ricolinostat] + NC(=O)Nc1cc(-c2cccc(F)c2)sc1C(=O)N[C@H]1CCCNC1 [AZD7762] (partner 0.2 µM)
# In short: as §1
Cell Line,relative viability ([1]; first compound 0.08 µM),relative viability ([1]; first compound 0.253 µM),relative viability ([1]; first compound 0.8 µM),relative viability ([1]; first compound 2.53 µM),relative viability ([1]; first compound 8 µM),relative viability (TGX 221 + Luminespib; first compound 0.08 µM),relative viability (TGX 221 + Luminespib; first compound 0.8 µM),relative viability (TGX 221 + Luminespib; first compound 2.53 µM),relative viability (TGX 221 + Luminespib; first compound 8 µM),relative viability (TGX 221 + Tozasertib; first compound 0.08 µM),relative viability (TGX 221 + Tozasertib; first compound 0.253 µM),relative viability (TGX 221 + Tozasertib; first compound 0.8 µM),relative viability (TGX 221 + Tozasertib; first compound 2.53 µM),relative viability (TGX 221 + Tozasertib; first compound 8 µM),relative viability (Ricolinostat + AZD7762; first compound 0.08 µM),relative viability (Ricolinostat + AZD7762; first compound 0.253 µM),relative viability (Ricolinostat + AZD7762; first compound 0.8 µM),relative viability (Ricolinostat + AZD7762; first compound 2.53 µM),relative viability (TGX 221 + Luminespib; first compound 0.253 µM)
ABC-1,0.214,0.204,0.205,0.265,0.186,0.477,0.622,0.767,0.484,0.192,0.157,0.203,0.188,0.161,0.945,0.788,0.748,0.617,
NCI-H1755,0.735,0.571,0.544,0.629,0.728,0.441,0.33,0.394,0.258,0.522,0.499,0.521,0.538,0.428,0.38,0.444,0.439,0.422,0.65
NCI-H838,0.264,0.271,0.285,0.309,0.268,0.219,0.296,0.344,0.266,0.276,0.257,0.282,0.247,0.192,0.827,0.941,0.963,0.958,0.335
NCI-H322M,0.487,0.426,0.487,0.497,0.444,0.735,0.776,0.812,0.644,0.513,0.468,0.446,0.442,0.44,0.432,0.663,0.512,0.49,0.802
NCI-H441,0.801,0.855,0.815,0.61,0.768,0.554,0.364,0.312,0.278,0.605,0.569,0.737,0.611,0.695,0.982,1.06,0.924,0.801,0.307
EMC-BAC-2,0.297,0.303,0.254,0.327,0.305,1.12,1.16,1.11,1.08,0.255,0.318,0.296,0.307,0.275,1.01,1.03,0.968,0.557,1.08
HARA,0.117,0.106,0.49,0.104,0.101,0.827,0.812,0.702,0.668,0.147,0.105,0.123,0.1,0.0992,0.35,0.256,0.184,0.236,0.863
NCI-H727,0.537,0.604,0.762,0.702,0.53,0.345,0.303,0.257,0.363,0.543,0.64,0.65,0.571,0.542,0.475,0.711,0.664,0.576,0.315
